{
  "source": "patent US8034329B2",
  "about": "“Repair and regeneration of renal tissue using human umbilical cord tissue-derived cells” (Advanced Technologies And Regenerative Medicine, LLC, priority 2007, dated 2011)",
  "tested_on": "HLA-DR, DP, DQ expression of hUTC",
  "experiment": "Inhibition of IFN-gamma-induced expression of HLA-DR, DP, DQ on hUTC, flow cytometry",
  "assay_type": "cell-based, human",
  "method": "Culture-expanded human umbilical cord tissue-derived cells (022803 P4) were seeded into 6-well tissue culture plates and cultured in Dulbecco's Modified Eagles Media (DMEM)-low glucose, 15% fetal bovine serum (FBS), penicillin/streptomycin (P/S), Betamercaptoethanol (BME) to approximately 70% confluence. The cells were then treated with media containing 10 μM of respective HMG-CoA reductase inhibitor (Simvastatic acid (Alexis Biochemicals, Lausen, Switzerland) formulated as 10 mM stock reagents in DMSO) or DMSO vehicle—0.1% (Sigma, St. Louis, Mo.) and incubated overnight. The media was removed by aspiration and replaced with media containing 500 U/ml rhIFN-gamma (BD Pharmingen, Franklin Lakes, N.J.) and […] of respective HMG-CoA reductase inhibitor and incubated for 3 days. On day three, cells were harvested with trypsin.\nHarvested cells were washed once with PBS and re-suspended in 100 μl of 3% FBS in PBS with 20 μl FITC-labeled HLA-DR,DP,DQ (BD Biosciences, Franklin Lakes, N.J.) or FITC-labeled IgG antibody (BD Biosciences, Franklin Lakes, N.J.) and incubated for one hour. Cells were washed once in PBS and resuspended in 500 μl PBS and analyzed on a FACSCalibur flow cytometer (BS Biosciences, Franklin Lakes, N.J.).",
  "data": [
    {"molecule": "CCC(C)(C)C(=O)O[C@H]1C[C@@H](C)C=C2C=C[C@H](C)[C@H](CC[C@@H]3C[C@@H](O)CC(=O)O3)[C@H]21", "note": "[Simvastatin]", "values": [
      {"measurement": "HLA-DR, DP, DQ expression, FITC fluorescence intensity, IFN-gamma-treated, mean", "setting": "10 μM inhibitor overnight, then 500 U/ml rhIFN-gamma plus inhibitor 3 days", "value": 5.57},
      {"measurement": "HLA-DR, DP, DQ expression, FITC fluorescence intensity, No cytokine treatment, Mean", "setting": "10 μM inhibitor, no IFN-gamma", "value": 5.66},
      {"measurement": "FITC fluorescence intensity, IgG control, mean", "setting": "10 μM inhibitor, FITC-labeled IgG antibody", "value": 4.4}
    ]}
  ]
}
